Laboratory results reported in ChEMBL document CHEMBL1126675, “Structure-based design of inhibitors of purine nucleoside phosphorylase. 1. 9-(arylmethyl) derivatives of 9-deazaguanine” (J Med Chem, 1993).

How the values were obtained:
[1] = biological target: T1, Purine nucleoside phosphorylase (Bos taurus, UniProt P55859); experiment: Inhibition of Purine nucleoside phosphorylase was evaluated against the enzyme from calf spleen in 50 mM phosphate
T1 sequence (P55859 whole entry): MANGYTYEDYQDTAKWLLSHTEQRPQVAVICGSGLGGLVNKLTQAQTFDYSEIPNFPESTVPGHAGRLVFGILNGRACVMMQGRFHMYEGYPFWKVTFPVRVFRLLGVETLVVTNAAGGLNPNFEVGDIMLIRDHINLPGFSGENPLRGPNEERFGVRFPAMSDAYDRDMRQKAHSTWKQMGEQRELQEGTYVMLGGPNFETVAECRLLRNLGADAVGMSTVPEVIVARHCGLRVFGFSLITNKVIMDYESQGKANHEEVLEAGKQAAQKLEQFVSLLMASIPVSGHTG

[2] = biological target: T1, Purine nucleoside phosphorylase; experiment: Inhibition of purine nucleoside phosphorylase against the enzyme from calf spleen in 1 mM phosphate
[3] = biological target: T2, Purine nucleoside phosphorylase (Homo sapiens, UniProt P00491); experiment: Inhibition of Purine nucleoside phosphorylase was evaluated against the enzyme from Human erythrocytic in 50 mM phosphate; format: tissue-based
T2 sequence (P00491 whole entry): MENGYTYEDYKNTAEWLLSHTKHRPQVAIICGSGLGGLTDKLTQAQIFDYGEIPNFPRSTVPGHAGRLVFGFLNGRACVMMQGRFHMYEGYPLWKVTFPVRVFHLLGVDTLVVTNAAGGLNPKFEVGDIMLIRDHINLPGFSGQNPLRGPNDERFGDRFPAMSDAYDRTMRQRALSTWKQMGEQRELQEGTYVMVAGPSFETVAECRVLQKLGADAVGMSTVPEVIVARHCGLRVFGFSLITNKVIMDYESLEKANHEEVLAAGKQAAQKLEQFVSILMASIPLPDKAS

[4] = biological target: T1, Purine nucleoside phosphorylase; experiment: Inhibition of Purine nucleoside phosphorylase was evaluated against the enzyme from calf spleen in 1 mM phosphate; format: tissue-based

Row | IC50 [1] | IC50 [2] | Structure (SMILES) | IC50 [3] | also measured
1 | 10000 nM | 240 nM | Nc1nc(O)c2[nH]cc(Cc3cc(Cl)cc(Cl)c3Cl)c2n1 | – | –
2 | – | – | Nc1nc(O)c2[nH]c(Nc3cccnc3)nc2n1 | 21900 nM | –
3 | – | – | Nc1nc(O)c2c(n1)CC(Cc1ccsc1)=N2 | 67 nM | –
4 | – | – | Nc1nc(O)c2c(n1)CC(NCc1ccsc1)=N2 | 630 nM | –
5 | – | – | Cc1ccsc1CC1=Nc2c(O)nc(N)nc2C1 | 47600 nM | –
6 | – | – | Nc1nc(O)c2c(n1)CC(NCc1cccs1)=N2 | 1000 nM | –
7 | – | – | Nc1nc(O)c2c(n1)CC(NCc1ccco1)=N2 | 750 nM | –
8 | – | – | Nc1nc(O)c2[nH]c(Cc3ccsc3)nc2n1 | 11000 nM | –
9 | – | – | Nc1nc(O)c2[nH]c(Cc3ccco3)nc2n1 | 17900 nM | –
10 | – | – | Cc1ccsc1Cc1nc2nc(N)[nH]c(=O)c2[nH]1 | 47600 nM | –
11 | – | – | Nc1nc(O)c2c(n1)CC(Cc1ccccc1)=N2 | 85 nM | –
12 | – | 0.63 nM | NC1=NC(=O)C2NC(N)=C(Cc3ccsc3)C2N1 (configuration not stated) | – | –
13 | – | – | Nc1nc(O)c2[nH]c(Cc3cccs3)nc2n1 | 11000 nM | –
14 | 220 nM | 24 nM | Nc1nc2c(Cc3cccc(F)c3)c[nH]c2c(=O)[nH]1 | – | –
15 | 270 nM | 57 nM | Cc1cccc(Cc2c[nH]c3c(=O)[nH]c(N)nc23)c1 | – | –
16 | 250 nM | 17 nM | Nc1nc2c(Cc3ccc(Cl)c(Cl)c3)c[nH]c2c(=O)[nH]1 | – | –
17 | – | – | NC1=NC(=O)C2NC=C(Cc3ccccc3)C2N1 (configuration not stated) | – | Ki [1]: 100 nM; Ki [4]: 12 nM
18 | – | – | Nc1nc(O)c2[nH]c(Cc3ccccc3)nc2n1 | 29600 nM | –

Row | IC50 [1] | IC50 [2] | Structure (SMILES) | IC50 [3] | also measured
19 | 660 nM | 82 nM | COc1cccc(Cc2c[nH]c3c(O)nc(N)nc23)c1 | – | –
20 | 160 nM | 160 nM | Nc1nc(O)c2nc(N)n(Cc3cccs3)c2n1 | – | –
21 | 2000 nM | 270 nM | Nc1nc2c(Cc3ccccc3O)c[nH]c2c(=O)[nH]1 | – | –
22 | – | – | Nc1nc(O)c2c(n1)CC(NCc1ccccc1)=N2 | 850 nM | –
23 | – | – | Cc1ccsc1CNC1=Nc2c(O)nc(N)nc2C1 | 4050 nM | –
24 | – | – | Nc1nc(O)c2c(n1)CC(Cc1ccco1)=N2 | 57 nM | –
25 | 270 nM | 23 nM | Nc1nc2c(Cc3ccc(I)cc3)c[nH]c2c(=O)[nH]1 | – | –
26 | – | – | Nc1nc(O)c2c(n1)CC(Cc1cccs1)=N2 | 30 nM | –
27 | – | – | Nc1nc2nc(NCc3ccccc3)[nH]c2c(=O)[nH]1 | 470 nM | –
28 | – | – | Nc1nc2nc(-c3cccnc3)[nH]c2c(=O)[nH]1 | 57000 nM | –
29 | – | – | Cc1ccsc1CNc1nc2[nH]c(N)nc(O)c-2n1 | 4050 nM | –
30 | – | 83 nM | Nc1nc(O)c2[nH]cc(Cc3ccco3)c2n1 | – | –
31 | – | – | Nc1nc(O)c2[nH]c(NCc3ccco3)nc2n1 | 250 nM | –
32 | – | – | Nc1nc(O)c2[nH]c(NCc3cccs3)nc2n1 | 160 nM | –
33 | 190 nM | 36 nM | Nc1nc2c(Cc3cccc(C(F)(F)F)c3)c[nH]c2c(=O)[nH]1 | – | –
34 | – | – | Nc1nc2nc(NCc3ccsc3)[nH]c2c(=O)[nH]1 | 85 nM | –
35 | 2300 nM | 260 nM | Nc1nc(O)c2[nH]cc(Cc3ccc(O)cc3)c2n1 | – | –
36 | 2520 nM | 120 nM | Nc1nc(O)c2[nH]cc(Cc3ccccc3Cl)c2n1 | – | –

Row | Structure (SMILES) | IC50 [1] | IC50 [2] | IC50 [3] | also measured
37 | Nc1nc2c(Cc3cccc(Oc4ccccc4)c3)c[nH]c2c(=O)[nH]1 | 740 nM | – | – | –
38 | NC1=NC(=O)C2NC=C(Cc3ccsc3)C2N1 (configuration not stated) | – | 0.067 nM | – | Ki [4]: 15 nM
39 | Nc1nc2c(Cc3cccc(Cl)c3)c[nH]c2c(=O)[nH]1 | 150 nM | 20 nM | – | –
40 | Nc1nc(O)c2c(n1)CC(c1cccnc1)=N2 | 0.16 nM | – | – | –
41 | Nc1nc(O)c2[nH]cc(Cc3ccsc3)c2n1 | – | 25 nM | – | –
42 | Nc1nc2c(Cc3cccnc3)c[nH]c2c(=O)[nH]1 [PELDESINE] | 190 nM | 25 nM | – | –
